What was measured:
Type in all cases: in vivo
[1] = test system: wheat (Triticum aestivum); assay: Test A postemergence; details: Triticum aestivum, post-emergence, 240 h, 0 to 100 scale, read-out: Plant response rating, Wheat
Procedure, shortened: (§1)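 Visual 0–100 rating (100 = complete control) taken about 10 d post-treatment relative to untreated checks. Preemergence: directed soil spray on sown loam/sand pots. Postemergence: seedlings 2–10 cm, 1–2 leaf. Non-phytotoxic solvent formulation with surfactant.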

[2] = test system: ragweed (common ragweed, Ambrosia elatior); assay: Test A postemergence; details: Ambrosia artemisiifolia, post-emergence, 240 h, 0 to 100 scale, read-out: Plant response rating, Ragweed
Procedure, shortened: as §1

[3] = test system: kochia (Kochia scoparia); assay: Test A postemergence; details: Bassia scoparia, post-emergence, 240 h, 0 to 100 scale, read-out: Plant response rating, Kochia
Procedure, shortened: as §1

[4] = test system: Italian ryegrass (Lolium multiflorum); assay: Test A postemergence; details: Lolium multiflorum, post-emergence, 240 h, 0 to 100 scale, read-out: Plant response rating, Ryegrass, Italian
Procedure, shortened: as §1

[5] = test system: galium (catchweed bedstraw, Galium aparine); assay: Test A postemergence; details: Galium, post-emergence, 240 h, 0 to 100 scale, read-out: Plant response rating, Galium
Procedure, shortened: as §1

[6] = test system: corn (Zea mays); assay: Test A postemergence; details: Zea mays, post-emergence, 240 h, 0 to 100 scale
Procedure, shortened: as §1

[7] = test system: blackgrass (Alopecurus myosuroides); assay: Test A postemergence; details: Alopecurus myosuroides, post-emergence, 240 h, 0 to 100 scale, read-out: Plant response rating, Blackgrass
Procedure, shortened: as §1

[8] = test system: barnyardgrass (Echinochloa crus-galli); assay: Test A postemergence; details: Echinochloa crus-galli, post-emergence, 240 h, 0 to 100 scale, read-out: Plant response rating, Barnyardgrass
Procedure, shortened: as §1

[9] = test system: pigweed (Amaranthus retroflexus); assay: Test A postemergence; details: Amaranthus retroflexus, post-emergence, 240 h, 0 to 100 scale, read-out: Plant response rating, Pigweed
Procedure, shortened: as §1

[10] = test system: giant foxtail (Setaria faberii); assay: Test A postemergence; details: Setaria faberi, post-emergence, 240 h, 0 to 100 scale, read-out: Plant response rating, Foxtail, Giant
Procedure, shortened: as §1

[11] = test system: ducksalad (Heteranthera limosa); assay: Test B flooded paddy; details: Heteranthera limosa, 336 h; 250 g ai/ha, Flood, 13 to 15 days, scale 0 (no effect) to 100 (complete control); read-out: Plant response rating, Ducksalad
Procedure, shortened: (§2)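 In-water treatment: compound dosed into 3 cm flood over soil, water level unchanged throughout. Controls run alongside; visual assessment at day 13–15.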

[12] = test system: rice (Oryza sativa); assay: Test B flooded paddy; details: Oryza sativa, 336 h; 250 g ai/ha, Flood, 13 to 15 days, scale 0 (no effect) to 100 (complete control); read-out: Plant response rating, Rice
Procedure, shortened: as §2

[13] = test system: barnyardgrass (Echinochloa crus-galli); assay: Test B flooded paddy; details: Echinochloa crus-galli, 336 h; 250 g ai/ha, Flood, 13 to 15 days, scale 0 (no effect) to 100 (complete control); read-out: Plant response rating, Barnyardgrass
Procedure, shortened: as §2

[14] = test system: sedge, umbrella (small-flower umbrella sedge, Cyperus difformis); assay: Test B flooded paddy; details: Cyperus difformis, 336 h; 250 g ai/ha, Flood, 13 to 15 days, scale 0 (no effect) to 100 (complete control); read-out: Plant response rating, Sedge, Umbrella
Procedure, shortened: as §2

[15] = test system: waterhemp (common waterhemp, Amaranthus rudis); assay: Test C preemergence; details: Amaranthus tuberculatus, pre-emergence, scale 0 to 100, read-out: Plant response rating, Waterhemp
Procedure, shortened: (§3)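 Steps: plant seeds in loam-sand soil and treat preemergence, or grow plants in peat-based medium to 2-18 cm and spray; compound formulated in non-phytotoxic solvent/surfactant; hold in greenhouse 13-15 days; score visually versus controls from 0 (no effect) to 100 (complete control).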

[16] = test system: Italian ryegrass (Lolium multiflorum); assay: Test C preemergence; details: Lolium multiflorum, pre-emergence, 336 h, scale 0 to 100, read-out: Plant response rating, Ryegrass, Italian
Procedure, shortened: as §3

[17] = test system: ragweed (common ragweed, Ambrosia elatior); assay: Test A preemergence; details: Ambrosia artemisiifolia, pre-emergence, 240 h, 0 to 100 scale (0 no effect, 100 complete control), read-out: Ragweed plant response rating
Procedure, shortened: as §1

[18] = test system: kochia (Kochia scoparia); assay: Test A preemergence; details: Bassia scoparia, pre-emergence, 240 h, 0 to 100 scale (0 no effect, 100 complete control), read-out: Kochia plant response rating
Procedure, shortened: as §1

[19] = test system: Italian ryegrass (Lolium multiflorum); assay: Test A preemergence; details: Lolium multiflorum, pre-emergence, 240 h, 0 to 100 scale (0 no effect, 100 complete control), read-out: Ryegrass, Italian plant response rating
Procedure, shortened: as §1

[20] = test system: barnyardgrass (Echinochloa crus-galli); assay: Test A preemergence; details: Echinochloa crus-galli, pre-emergence, 240 h, 0 to 100 scale (0 no effect, 100 complete control), read-out: Barnyardgrass plant response rating
Procedure, shortened: as §1

[21] = test system: pigweed (Amaranthus retroflexus); assay: Test A preemergence; details: Amaranthus retroflexus, pre-emergence, 240 h, 0 to 100 scale (0 no effect, 100 complete control), read-out: Pigweed plant response rating
Procedure, shortened: as §1

[22] = test system: giant foxtail (Setaria faberii); assay: Test A preemergence; details: Setaria faberi, pre-emergence, 240 h, 0 to 100 scale (0 no effect, 100 complete control), read-out: Foxtail, Giant plant response rating
Procedure, shortened: as §1

With N#Cc1cccc(Oc2ncc(C(F)(F)F)cn2)c1Oc1ncc(Cl)cn1 [Compound 39, 2-[(5-chloro-2-pyrimidinyl)oxy]-3-[[5-(trifluoromethyl)-2-pyrimidinyl]oxy]-benzonitrile] the plant injury at 31 g/ha ([1]; 31 g ai/ha) was 10%, the plant injury at 125 g/ha ([1]; 125 g ai/ha) was 90% and the pest or weed control at 31 g/ha ([2]; 31 g ai/ha) was 40%. It also gave a pest or weed control at 125 g/ha ([2]; 125 g ai/ha) of 60%, a pest or weed control at 31 g/ha ([3]; 31 g ai/ha) of 100% and a pest or weed control at 125 g/ha ([3]; 125 g ai/ha) of 100%. The pest or weed control at 31 g/ha ([4]; 31 g ai/ha) was 40%, the pest or weed control at 125 g/ha ([4]; 125 g ai/ha) was 90% and the pest or weed control at 31 g/ha ([5]; 31 g ai/ha) was 100%. For the same compound, the pest or weed control at 125 g/ha ([5]; 125 g ai/ha) was 100%, the Corn plant response rating (crop injury, 0 = no effect, 100 = complete kill) at 31 g/ha ([6]; 31 g ai/ha) was 60% and the Corn plant response rating (crop injury, 0 = no effect, 100 = complete kill) at 125 g/ha ([6]; 125 g ai/ha) was 100%. For the same compound, the pest or weed control at 31 g/ha ([7]; 31 g ai/ha) was 80%, the pest or weed control at 125 g/ha ([7]; 125 g ai/ha) was 100% and the pest or weed control at 31 g/ha ([8]; 31 g ai/ha) was 90%. For the same compound, the pest or weed control at 125 g/ha ([8]; 125 g ai/ha) was 90%, the pest or weed control at 31 g/ha ([9]; 31 g ai/ha) was 100% and the pest or weed control at 125 g/ha ([9]; 125 g ai/ha) was 100%. The pest or weed control at 31 g/ha ([10]; 31 g ai/ha) was 100%, the pest or weed control at 125 g/ha ([10]; 125 g ai/ha) was 100% and the pest or weed control at 250 g/ha [11] was 100%. For the same compound, the plant injury at 250 g/ha [12] was 50%, the pest or weed control at 250 g/ha [13] was 50% and the pest or weed control at 250 g/ha [14] was 100%. It also gave a pest or weed control at 31 g/ha ([15]; 31 g ai/ha, preemergence) of 100%, a pest or weed control at 62 g/ha ([15]; 62 g ai/ha, preemergence) of 100% and a pest or weed control at 125 g/ha ([15]; 125 g ai/ha, preemergence) of 100%. For the same compound, the pest or weed control at 16 g/ha ([15]; Preemergence, 16 g ai/ha) was 100%, the pest or weed control at 31 g/ha ([16]; 31 g ai/ha, preemergence) was 20% and the pest or weed control at 62 g/ha ([16]; 62 g ai/ha, preemergence) was 75%. The pest or weed control at 125 g/ha ([16]; 125 g ai/ha, preemergence) was 90%, the pest or weed control at 16 g/ha ([16]; Preemergence, 16 g ai/ha) was 0% and the pest or weed control at 31 g/ha ([17]; 31 g ai/ha) was 0%. The pest or weed control at 125 g/ha ([17]; 125 g ai/ha) was 40%, the pest or weed control at 31 g/ha ([18]; 31 g ai/ha) was 90% and the pest or weed control at 125 g/ha ([18]; 125 g ai/ha) was 100%. It also gave a pest or weed control at 31 g/ha ([19]; 31 g ai/ha) of 10%, a pest or weed control at 125 g/ha ([19]; 125 g ai/ha) of 90% and a pest or weed control at 31 g/ha ([20]; 31 g ai/ha) of 80%. It also gave a pest or weed control at 125 g/ha ([20]; 125 g ai/ha) of 100%, a pest or weed control at 31 g/ha ([21]; 31 g ai/ha) of 100% and a pest or weed control at 125 g/ha ([21]; 125 g ai/ha) of 100%. The pest or weed control at 31 g/ha ([22]; 31 g ai/ha) was 100% and the pest or weed control at 125 g/ha ([22]; 125 g ai/ha) was 100%.
